Assay results published in PubChem BioAssay (NCI).
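Here, GI50 denotes the concentration required for 50% inhibition of growth. TGI is the concentration that stops growth completely.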

Experiments:
Test in all cases: NCI tumour cell line growth inhibition, 384-well format
[1] = system: NCI/ADR-RES ovarian
[2] = system: MDA-MB-231 breast
[3] = system: RXF 393 renal
[4] = system: NCI-H226 lung
[5] = system: SF-295 CNS
[6] = system: CAKI-1 renal
[7] = system: MALME-3M melanoma
[8] = system: SF-268 CNS
[9] = system: HT29 colon
[10] = system: SK-MEL-2 melanoma
[11] = system: K-562 leukemia
[12] = system: CCRF-CEM leukemia
[13] = system: UO-31 renal

With `O=C1CC[C@H](N2Cc3c(OCc4ccc(CN5CCOCC5)cc4)cccc3C2=O)C(=O)N1` as the molecule, how does the GI50 [1] read?
The GI50 was greater than 100 µM.

What about the TGI [1] of the same molecule?
Its TGI is greater than 100 µM.

And the GI50 [2]?
The GI50 was greater than 100 µM.

And the TGI [2]?
The TGI was greater than 100 µM.

And the GI50 [3]?
The GI50 was greater than 100 µM.

What about the TGI [3] of the same molecule?
The TGI was greater than 100 µM.

What about the GI50 [4] of the same molecule?
The GI50 was greater than 100 µM.

What about the TGI [4] of the same molecule?
Its TGI is greater than 100 µM.

And the GI50 [5]?
The GI50 was greater than 100 µM.

And the TGI [5]?
The TGI was greater than 100 µM.

And the GI50 [6]?
Its GI50 is greater than 100 µM.

What about the TGI [6] of the same molecule?
Its TGI is greater than 100 µM.

What about the GI50 [7] of the same molecule?
Its GI50 is greater than 100 µM.

And the TGI [7]?
Its TGI is greater than 100 µM.

And the GI50 [8]?
The GI50 was greater than 100 µM.

What about the TGI [8] of the same molecule?
The TGI was greater than 100 µM.

What about the GI50 [9] of the same molecule?
The GI50 was greater than 100 µM.

What about the TGI [9] of the same molecule?
Its TGI is greater than 100 µM.

And the GI50 [10]?
The GI50 was greater than 100 µM.

What about the TGI [10] of the same molecule?
Its TGI is greater than 100 µM.

What about the GI50 [11] of the same molecule?
Its GI50 is greater than 100 µM.

And the TGI [11]?
Its TGI is greater than 100 µM.

And the GI50 [12]?
Its GI50 is greater than 100 µM.

And the TGI [12]?
Its TGI is greater than 100 µM.

And the GI50 [13]?
Its GI50 is greater than 100 µM.

What about the TGI [13] of the same molecule?
Its TGI is greater than 100 µM.
